Laboratory results taken from PMC4992173, “Divergent synthesis and identification of the cellular targets of deoxyelephantopins” (Nature Communications, 2016).

Experiments:
PPARγ = molecular target: T1, PPARγ (Homo sapiens, UniProt P37231); experiment: Gel-based in situ competition of PPARγ overexpressed in HeLa cells; assay type: cell-based; parameters: host or cells: HeLa; conditions: HeLa cells expressing PPARγ, 20 µM in situ 4 h, then 10 µM 24c-Cy3
T1 sequence (P37231 1-505): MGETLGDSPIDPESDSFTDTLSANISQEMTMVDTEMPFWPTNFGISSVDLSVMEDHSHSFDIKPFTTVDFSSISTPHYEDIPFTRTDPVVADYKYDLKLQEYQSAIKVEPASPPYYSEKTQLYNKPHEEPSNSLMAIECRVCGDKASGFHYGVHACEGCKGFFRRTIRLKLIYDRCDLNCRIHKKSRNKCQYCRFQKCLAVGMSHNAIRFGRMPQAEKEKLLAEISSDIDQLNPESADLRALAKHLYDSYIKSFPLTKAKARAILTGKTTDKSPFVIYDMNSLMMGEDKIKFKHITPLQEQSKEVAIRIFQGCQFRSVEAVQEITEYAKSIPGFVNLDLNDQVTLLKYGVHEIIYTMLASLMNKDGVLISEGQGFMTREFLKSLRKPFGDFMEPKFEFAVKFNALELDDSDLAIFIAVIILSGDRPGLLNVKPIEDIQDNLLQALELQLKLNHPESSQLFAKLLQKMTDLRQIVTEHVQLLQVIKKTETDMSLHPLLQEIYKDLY

endogenous PPARγ = molecular target: T2, endogenous PPARγ (Homo sapiens, UniProt P37231); experiment: Targeted competitive proteomics of endogenous PPARγ in Caco-2 cells; assay type: cell-based; conditions: Caco-2 cells treated in situ with 20 μM, lysate then 10 μM 24c; n=6
T2 construct: endogenous PPARγ was successfully enriched and quantified from the DMSO-treated Caco-2 cells; endogenous in cells; host or cells: Caco-2
Description: On the basis of the reported interaction between deoxyelephantopin and PPARγ and because MCF7 cells are known to express very low levels of this protein, we investigated in a separate experiment whether deoxyelephantopin indeed covalently binds PPARγ. The recombinant transcription factor was spiked into MCF7 lysates to 30 nM final concentration and successfully enriched by the methacrylate ester probe 24c, as evidenced from LC–MS/MS-based label-free quantification (LFQ)[48]. […] Gratifyingly, endogenous PPARγ was successfully enriched and quantified from the DMSO-treated Caco-2 cells, whereas DEP pretreatment efficiently competed PPARγ enrichment (>95%; Fig. 7a). […]
Figure 7 Identification of PPARγ as target of deoxyelephantopin and screening of DEP derivatives as PPARγ antagonists. (a) Quantification of endogenous PPARγ enriched from Caco-2 cells using 10 μM 24c following in situ treatment with DEP (20 μM) or DMSO (normalized LFQ values±s.d. are shown; n=6). […] Quantification of fluorescence intensity in the competitive screening for PPARγ antagonists (bottom; values±s.d. are shown; n=3).
Samples were analyzed by LC-MS/MS (see below) and the MS data was processed with […]
Samples were analyzed by LC-MS/MS (see below) using inclusion lists containing m/z and charge of the expected peptides of indicated proteins (see Figure 6c γ . was processed with MaxQuant (see below). […]

C=C(C)C(=O)O[C@H]1CC2=C[C@@H](C/C(C)=C/[C@H]3OC(=O)C(=C)[C@H]13)OC2=O [deoxyelephantopin]
competition of PPARγ labelling by 24c-Cy3 (PPARγ): efficient competition
competition of endogenous PPARγ enrichment by 24c (endogenous PPARγ): > 95%
